{"source": "patent US20210338635A1", "about": "“Dosage Regimen for the Treatment of Multiple Sclerosis with a S1P Receptor Modulator” (Argentum Pharmaceuticals LLC, priority 2020, published 2021)", "origin": "cited, not measured here", "key": {"[1]": {"details": "administration of 1.25 mg; healthy patients; treatment initiation"}, "[2]": {"details": "humans; relapsing multiple sclerosis, oral"}}}
{"compound": "CCc1cc(/C(C)=N/OCc2ccc(C3CCCCC3)c(C(F)(F)F)c2)ccc1CN1CC(C(=O)O)C1", "note": "[BAF-312, 1-({4-[(1E)-1-({[4-Cyclohexyl-3(trifluoromethyl)phenyl]methoxy}imino)ethyl]-2-ethylphenyl}methyl)azetidine-3-carboxylic acid]", "values": [{"measurement": "decrease in heart rate", "setting": "[1]", "result": "approximately 8 beets/min"}]}
{"compound": "CCCCCCCCc1ccc(CCC(N)(CO)CO)cc1", "note": "[FTY720]", "values": [{"measurement": "efficacy in the treatment of multiple sclerosis", "setting": "[2]", "result": "efficacy in the treatment of multiple sclerosis has been shown in humans"}]}
